System: recombinant NL4-3 virus (Renilla luciferase in nef, Gag P373S)
Experiment: HIV cell culture assay (luciferase reporter virus in MT-2 cells)
Type: cell-based
Conditions: NL43
Method: HIV cell culture assay—MT-2 cells and 293T cells were obtained from the NIH AIDS Research and Reference Reagent Program. MT-2 cells were propagated in RPMI 1640 media supplemented with 10% heat inactivated fetal bovine serum, […]. The 293T cells were propagated in DMEM media supplemented with 10% heat inactivated fetal bovine serum (FBS), 100 units/ml penicillin G and 100 μg/ml streptomycin. The proviral DNA clone of NL4-3 was obtained from the NIH AIDS Research and Reference Reagent Program. A recombinant NL4-3 virus, in which a section of the nef gene from NL4-3 was replaced with the Renilla luciferase gene, was used as a reference virus. In addition, residue Gag P373 was converted to P373S. Briefly, the recombinant virus was prepared by transfection of the altered proviral clone of NL4-3. Transfections were performed in 293T cells using LipofectAMINE PLUS from Invitrogen (Carlsbad, Calif.), according to manufacturer's instruction. The virus was titered in MT-2 cells using luciferase enzyme activity as a marker. Luciferase was quantitated using the Dual Luciferase kit from Promega (Madison, Wis.), with modifications to the manufacturer's protocol. The diluted Passive Lysis solution was pre-mixed with the re-suspended Luciferase Assay Reagent and the re-suspended Stop & Glo Substrate (2:1:1 ratio). Fifty (50) μL of the mixture was added to each aspirated well on assay plates and luciferase activity was measured immediately on a Wallac TriLux (Perkin-Elmer). Antiviral activities of inhibitors toward the recombinant virus were quantified by measuring luciferase activity in cells infected for 4-5 days with NLRluc recombinants in the presence serial dilutions of the inhibitor. Table 1 is the key for the data in Table 2.

Row | Compound | EC50
1 | C=C(C)[C@@H]1CC[C@]2(C(=O)O)CC[C@]3(C)[C@H](CC[C@@H]4[C@@]5(C)CC=C(c6ccc(/C=C/C(=O)O)cc6)C(C)(C)[C@@H]5CC[C@]43C)[C@@H]12 [Example 4h, (1R,3aS,5aR,5bR,7aR,11aS,11bR,13aR,13bR)-9-(4-((E)-2-carboxyvinyl)phenyl)-5a,5b,8,8,11a-pentamethyl-1-(prop-1-en-2-yl)-2,3,3a,4,5,5a,5b,6,7,7a,8,11,11a,11b,12,13,13a,13b-octadecahydro-1H-cyclopenta[a]chrysene-3a-carboxylic acid] | < 1000 nM
2 | C=C(C)[C@@H]1CC[C@]2(CO)CC[C@]3(C)[C@H](CC[C@@H]4[C@@]5(C)CC=C(c6ccc(S(N)(=O)=O)cc6)C(C)(C)[C@@H]5CC[C@]43C)[C@@H]12 [Example 5j, 4-((1R,3aS,5aR,5bR,7aR,11aS,11bR,13aR,13bR)-3a-(hydroxymethyl)-5a,5b,8,8,11a-pentamethyl-1-(prop-1-en-2-yl)-2,3,3a,4,5,5a,5b,6,7,7a,8,11,11a,11b,12,13,13a,13b-octadecahydro-1H-cyclopenta[a]chrysen-9-yl)benzenesulfonamide] | < 1000 nM
3 | C=C(C)[C@@H]1CC[C@]2(CO)CC[C@]3(C)[C@H](CC[C@@H]4[C@@]5(C)CC=C(c6ccc(O)c(F)c6)C(C)(C)[C@@H]5CC[C@]43C)[C@@H]12 [Example 5f, 2-fluoro-4-((1R,3aS,5aR,5bR,7aR,11aS,11bR,13aR,13bR)-3a-(hydroxymethyl)-5a,5b,8,8,11a-pentamethyl-1-(prop-1-en-2-yl)-2,3,3a,4,5,5a,5b,6,7,7a,8,11,11a,11b,12,13,13a,13b-octadecahydro-1H-cyclopenta[a]chrysen-9-yl)phenol] | < 1000 nM
4 | C=C(C)[C@@H]1CC[C@]2(CO)CC[C@]3(C)[C@H](CC[C@@H]4[C@@]5(C)CC=C(c6ccc(O)c(Cl)c6)C(C)(C)[C@@H]5CC[C@]43C)[C@@H]12 [Example 5g, 2-chloro-4-((1R,3aS,5aR,5bR,7aR,11aS,11bR,13aR,13bR)-3a-(hydroxymethyl)-5a,5b,8,8,11a-pentamethyl-1-(prop-1-en-2-yl)-2,3,3a,4,5,5a,5b,6,7,7a,8,11,11a,11b,12,13,13a,13b-octadecahydro-1H-cyclopenta[a]chrysen-9-yl)phenol] | > 1000 nM
5 | CC(C)[C@@H]1CC[C@]2(C(=O)O)CC[C@]3(C)[C@H](CC[C@@H]4[C@@]5(C)CC[C@H](c6cccc(C(=O)O)c6)C(C)(C)[C@@H]5CC[C@]43C)[C@@H]12 [Example 3a, (3aS,5aR,5bR,7aS,9S,11aS,13aR,13bR)-9-(3-carboxyphenyl)-1-isopropyl-5a,5b,8,8,11a-pentamethylicosahydro-1H-cyclopenta[a]chrysene-3a-carboxylic acid] | 2000 nM
6 | C=C(C)[C@@H]1CC[C@]2(CO)CC[C@]3(C)[C@H](CC[C@@H]4[C@@]5(C)CC=C(c6csc(C(=O)O)c6)C(C)(C)[C@@H]5CC[C@]43C)[C@@H]12 [Example 5d, 4-((1R,3aS,5aR,5bR,7aR,11aS,11bR,13bR)-3a-(hydroxymethyl)-5a,5b,8,8,11a-pentamethyl-1-(prop-1-en-2-yl)-2,3,3a,4,5,5a,5b,6,7,7a,8,11,11a,11b,12,13,13a,13b-octadecahydro-1H-cyclopenta[a]chrysen-9-yl)thiophene-2-carboxylic acid] | < 1000 nM
7 | C=C(C)[C@@H]1CC[C@]2(C(=O)O)CC[C@]3(C)[C@H](CC[C@@H]4[C@@]5(C)CC=C(c6cccc(-c7nn[nH]n7)c6)C(C)(C)[C@@H]5CC[C@]43C)[C@@H]12 [Example 4i, (1R,3aS,5aR,5bR,7aR,11aS,11bR,13aR,13bR)-9-(3-(2H-tetrazol-5-yl)phenyl)-5a,5b,8,8,11a-pentamethyl-1-(prop-1-en-2-yl)-2,3,3a,4,5,5a,5b,6,7,7a,8,11,11a,11b,12,13,13a,13b-octadecahydro-1H-cyclopenta[a]chrysene-3a-carboxylic acid] | > 1000 nM
8 | C=C(C)[C@@H]1CC[C@]2(C(=O)O)CC[C@]3(C)[C@H](CC[C@@H]4[C@@]5(C)CC=C(c6ccc(C(=O)NS(=O)(=O)C(C)C)cc6)C(C)(C)[C@@H]5CC[C@]43C)[C@@H]12 [Example 6a, (1R,3aS,5aR,5bR,7aR,11aS,13aR,13bR)-9-(4-(isopropylsulfonylcarbamoyl)phenyl)-5a,5b,8,8,11a-pentamethyl-1-(prop-1-en-2-yl)-2,3,3a,4,5,5a,5b,6,7,7a,8,11,11a,11b,12,13,13a,13b-octadecahydro-1H-cyclopenta[a]chrysene-3a-carboxylic acid] | < 1000 nM
9 | C=C(C)[C@@H]1CC[C@]2(C(=O)OC)CC[C@]3(C)[C@H](CC[C@@H]4[C@@]5(C)CC=C(c6cccc(C(=O)O)c6)C(C)(C)[C@@H]5CC[C@]43C)[C@@H]12 [Example 1a, 3-((1R,3aS,5aR,5bR,7aR,11aS,13aR,13bR)-3a-(methoxycarbonyl)-5a,5b,8,8,11a-pentamethyl-1-(prop-1-en-2-yl)-2,3,3a,4,5,5a,5b,6,7,7a,8,11,11a,11b,12,13,13a,13b-octadecahydro-1H-cyclopenta[a]chrysen-9-yl)benzoic acid] | > 1000 nM
10 | C=C(C)[C@@H]1CC[C@]2(C(=O)O)CC[C@]3(C)[C@H](CC[C@@H]4[C@@]5(C)CC=C(c6cccc(CCC(=O)O)c6)C(C)(C)[C@@H]5CC[C@]43C)[C@@H]12 [Example 4k, (1R,3aS,5aR,5bR,7aR,11aS,11bR,13aR,13bR)-9-(3-(2-carboxyethyl)phenyl)-5a,5b,8,8,11a-pentamethyl-1-(prop-1-en-2-yl)-2,3,3a,4,5,5a,5b,6,7,7a,8,11,11a,11b,12,13,13a,13b-octadecahydro-1H-cyclopenta[a]chrysene-3a-carboxylic acid] | < 1000 nM
11 | C=C(C)[C@@H]1CC[C@]2(C(=O)O)CC[C@]3(C)[C@H](CC[C@@H]4[C@@]5(C)CC=C(c6ccc(CCC(=O)O)cc6)C(C)(C)[C@@H]5CC[C@]43C)[C@@H]12 [Example 4a, (1R,3aS,5aR,5bR,7aR,11aS,11bR,13aR,13bR)-9-(4-(2-carboxyethyl)phenyl)-5a,5b,8,8,11a-pentamethyl-1-(prop-1-en-2-yl)-2,3,3a,4,5,5a,5b,6,7,7a,8,11,11a,11b,12,13,13a,13b-octadecahydro-1H-cyclopenta[a]chrysene-3a-carboxylic acid] | < 1000 nM
12 | C=C(C)[C@@H]1CC[C@]2(CO)CC[C@]3(C)[C@H](CC[C@@H]4[C@@]5(C)CC=C(c6ccc(-c7nn[nH]n7)cc6)C(C)(C)[C@@H]5CC[C@]43C)[C@@H]12 [Example 5l, ((1R,3aS,5aR,5bR,7aR,11aS,11bR,13aR,13bR)-9-(4-(2H-tetrazol-5-yl)phenyl)-5a,5b,8,8,11a-pentamethyl-1-(prop-1-en-2-yl)-2,3,3a,4,5,5a,5b,6,7,7a,8,11,11a,11b,12,13,13a,13b-octadecahydro-1H-cyclopenta[a]chrysen-3a-yl)methanol] | > 1000 nM
13 | C=C(C)[C@@H]1CC[C@]2(C(=O)O)CC[C@]3(C)[C@H](CC[C@@H]4[C@@]5(C)CC=C(c6ccc(C(=O)O)c(F)c6)C(C)(C)[C@@H]5CC[C@]43C)[C@@H]12 [Example 4d, (1R,3aS,5aR,5bR,7aR,11aS,11bR,13aR,13bR)-9-(4-carboxy-3-fluorophenyl)-5a,5b,8,8,11a-pentamethyl-1-(prop-1-en-2-yl)-2,3,3a,4,5,5a,5b,6,7,7a,8,11,11a,11b,12,13,13a,13b-octadecahydro-1H-cyclopenta[a]chrysene-3a-carboxylic acid] | < 1000 nM
14 | C=C(C)[C@@H]1CC[C@]2(CO)CC[C@]3(C)[C@H](CC[C@@H]4[C@@]5(C)CC=C(c6ccc(C(=O)O)cc6)C(C)(C)[C@@H]5CC[C@]43C)[C@@H]12 [Example 5b, 4-((1R,3aS,5aR,5bR,7aR,11aS,11bR,13bR)-3a-(hydroxymethyl)-5a,5b,8,8,11a-pentamethyl-1-(prop-1-en-2-yl)-2,3,3a,4,5,5a,5b,6,7,7a,8,11,11a,11b,12,13,13a,13b-octadecahydro-1H-cyclopenta[a]chrysen-9-yl)benzoic acid] | < 1000 nM
15 | C=C(C)[C@@H]1CC[C@]2(CO)CC[C@]3(C)[C@H](CC[C@@H]4[C@@]5(C)CC=C(c6ccc(C(=O)O)cn6)C(C)(C)[C@@H]5CC[C@]43C)[C@@H]12 [Example 5u, 6-((1R,3aS,5aR,5bR,7aR,11aS,11bR,13aR,13bR)-3a-(hydroxymethyl)-5a,5b,8,8,11a-pentamethyl-1-(prop-1-en-2-yl)-2,3,3a,4,5,5a,5b,6,7,7a,8,11,11a,11b,12,13,13a,13b-octadecahydro-1H-cyclopenta[a]chrysen-9-yl)nicotinic acid] | < 1000 nM
16 | C=C(C)[C@@H]1CC[C@]2(CO)CC[C@]3(C)[C@H](CC[C@@H]4[C@@]5(C)CC=C(c6ccc(O)nc6)C(C)(C)[C@@H]5CC[C@]43C)[C@@H]12 [Example 5e, 5-((1R,3aS,5aR,5bR,7aR,11aS,13aR,13bR)-3a-(hydroxymethyl)-5a,5b,8,8,11a-pentamethyl-1-(prop-1-en-2-yl)-2,3,3a,4,5,5a,5b,6,7,7a,8,11,11a,11b,12,13,13a,13b-octadecahydro-1H-cyclopenta[a]chrysen-9-yl)pyridin-2-ol] | > 1000 nM

Reference: US8754068B2, “Modified C-3 betulinic acid derivatives as HIV maturation inhibitors” (priority 2010, dated 2014)
